Laboratory results: patent US20220054532A1, “VETERINARY COMPOSITIONS AND METHODS OF USE THEREFOR” (priority 2019, published 2022)

Assays:
Assay type in all cases: in vivo
[1] = test system: cats suffering behavior aberrations and/or anxiety; assay: Example 5: behavior aberrations and anxiety, Fe-BARQ (feline); settings: Fe-BARQ day 0 vs 60, SID, 0 (no improvement) to 3 (marked improvement)
Excerpt: (§1) This example examines the ability of embodiments of the invention versus Clomicalm® to reduce behavior aberrations and anxiety.
(§2) The first patient group is twenty dogs suffering behavior aberrations and/or anxiety, as determined by the canine behavioral assessment and research questionnaire (“C-BARQ”). See, e.g., P. Wiener et al., Use of questionnaire-based data to assess dog personality, 16 JOURNAL OF VETERINARY BEHAVIOR 81-85 (2016). The second patient group is twenty cats suffering behavior aberrations and/or anxiety, as determined by the feline behavioral assessment and research questionnaire (“Fe-BARQ”).
(§3) Each group is broken into five groups of four animals. The first group receives Clomicalm® as the sole active agent; the second group receives a composition comprising HMW HA as the sole active agent; the third group receives a composition comprising CBD as the sole active agent; the fourth group receives a composition comprising HMW HA and CBD as the active agents; and the fifth group receives a composition comprising HMW HA, CBD, valerian root, and scutillaria as the active agents.
(§4) Each composition is administered for a period of sixty (60) days, once a day (“SID”). Owners complete the species-appropriate C-BARQ or Fe-BARQ on days 0 and 60 of treatment. The results from the overall questionnaire are averaged and characterized as no improvement (score of 0), mild improvement (score of 1), moderate improvement (score of 2), or marked improvement (score of 3).
The following feline scores are observed and the results depicted in FIG. 5b: […]

[2] = test system: dogs suffering behavior aberrations and/or anxiety; assay: Example 5: behavior aberrations and anxiety, C-BARQ (canine); settings: C-BARQ day 0 vs 60, SID, 0 (no improvement) to 3 (marked improvement)
Excerpt: as §1, §2, §3, §4
The following canine scores are observed and the results depicted in FIG. 5a: […]

[3] = test system: dogs suffering from seizures; assay: Example 14: seizures in dogs (CBD Complex); settings: seizure scale 1 (seizure-free) to 10 (daily or multiple seizures)
Excerpt: (§5) This example examines the ability of embodiments of the invention versus phenobarbital to treat seizures.
(§6) The patient group is twenty-four dogs suffering from seizures as diagnosed by their referring veterinarian. The patient group is broken into six groups of four animals. The first group receives phenobarbital as the sole active agent; the second group receives a composition comprising phenobarbital and Keppra®; the third group receives a composition comprising HMW HA as the sole active agent; the fourth group receives a composition comprising CBD as the sole active agent; the fifth group receives a composition comprising HMW HA and CBD Complex as the active agents; and the sixth group receives a composition comprising HMW HA, CBD Complex, valerian root, and scutillaria as the active agents.
(§7) Each composition is administered for a period of sixty (60) days, BID. Each dog is evaluated on days 0 (“Initial Score”), 15, 30, 45, and 60 (“Final Score”) of treatment. The results are averaged and characterized on a scale of 1 (seizure-free) to 10 (daily seizures or multiple seizures during the event).
The following canine scores are observed and the results depicted in FIG. 14: […]

[4] = test system: dogs suffering from seizures; assay: Example 6: seizures in dogs; settings: seizure scale 1 (seizure-free) to 10 (daily or multiple seizures)
Excerpt: as §5
as §6, with “CBD” for “CBD Complex”, “CBD,” for “CBD Complex,”
as §7
The following canine scores are observed and the results depicted in FIG. 6: […]

| Structure (SMILES) | Improvement Score [1] | Improvement Score [2] | Initial Score ([3]; day 0) | Final Score ([3]; day 60, BID) | Initial Score ([4]; day 0) | Final Score ([4]; day 60, BID) |
| --- | --- | --- | --- | --- | --- | --- |
| CN(C)CCCN1c2ccccc2CCc2ccc(Cl)cc21 [Clomicalm ®] | .4 | .5 |  |  |  |  |
| CCC1(c2ccccc2)C(=O)NC(=O)NC1=O [Phenobarbital] |  |  | 9 | 8 | 9 | 8 |
